These results are taken from PubChem BioAssay (NCI).

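Growth conditions: 96-well plates. Treatment: test compound, 48 hours, 5 concentrations. Analysis: linear interpolation between bracketing concentrations; unreached endpoints set to highest concentration. The concentration for 50% growth inhibition is given as GI50. At the TGI there is no net growth.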 Where only a bound is given, the exact number is not on record here.

Among the test systems are EKVX NSCLC; HCC-2998 colon; MCF7 breast; MDA-MB-231 breast; NCI/ADR-RES ovarian; OVCAR-5 ovarian; RPMI-8226 leukemia; SK-MEL-5 melanoma; UACC-62 melanoma.
Test in all cases: DTP human tumour cell line panel, 48 h

`COc1ccc2[nH]c(O)c(/C=c3/cc4c(c(-c5ccc(F)cc5)n3)=Nc3ccccc3-4)c2c1`: the GI50 (in general, the concentration giving 50% growth inhibition) in the test with EKVX NSCLC is 23.2 µM; in the test with HCC-2998 colon, 3.3 µM; with MCF7 breast it was 1360 nM; with MDA-MB-231 breast, 1200 nM; with NCI/ADR-RES ovarian, 2000 nM; in the test on OVCAR-5 ovarian it was 13.8 µM. Moreover, the GI50 in the test on RPMI-8226 leukemia was 3.73 µM; with SK-MEL-5 melanoma, 3.47 µM; with UACC-62 melanoma it was 1540 nM. For the same molecule, the TGI (usually the concentration giving total growth inhibition) in the test on EKVX NSCLC is over 100 µM; with HCC-2998 colon, 12.6 µM; with MCF7 breast it was 3.32 µM; with MDA-MB-231 breast, 3.87 µM; in the test with NCI/ADR-RES ovarian, 5.63 µM; in the test with OVCAR-5 ovarian it was 35.6 µM. In addition, the TGI came out at 32.9 µM in the test on RPMI-8226 leukemia, 15.8 µM with SK-MEL-5 melanoma and 3.2 µM in the test on UACC-62 melanoma.
Turning to `COc1ccccc1N=C1SCCN1C(=S)Nc1ccc(S(=O)(=O)/N=C/N(C)C)cc1`, the TGI is 63.2 µM in the test on EKVX NSCLC; over 100 µM in the test on HCC-2998 colon; 83.7 µM in the test with MCF7 breast; over 100 µM in the test on MDA-MB-231 breast; over 100 µM in the test with NCI/ADR-RES ovarian; over 100 µM in the test with OVCAR-5 ovarian. Besides, the TGI was found to be 68.4 µM with RPMI-8226 leukemia, 37 µM in the test with SK-MEL-5 melanoma and 75.9 µM in the test with UACC-62 melanoma.
For `CN(C)c1ccc(/C=c2/c3cc([N+](=O)[O-])ccc3n3c2cc(-c2ccccc2)[n+]3C)cc1`, the TGI is 7.81 µM with EKVX NSCLC; 7.55 µM in the test with HCC-2998 colon; 8.07 µM with MCF7 breast; 2.75 µM in the test with MDA-MB-231 breast; over 100 µM in the test on NCI/ADR-RES ovarian; 10.8 µM in the test on OVCAR-5 ovarian. The TGI is 1.72 µM in the test on RPMI-8226 leukemia, 1.11 µM with SK-MEL-5 melanoma and 1.87 µM in the test on UACC-62 melanoma.
`OC(c1ccccc1)(c1cccnc1)C(O)(c1ccccc1)c1cccnc1` (stereo not drawn): the TGI with EKVX NSCLC, in the test with MCF7 breast, in the test on MDA-MB-231 breast, with NCI/ADR-RES ovarian, with OVCAR-5 ovarian and with RPMI-8226 leukemia was over 100 µM each time. For the same molecule, the TGI with SK-MEL-5 melanoma and in the test with UACC-62 melanoma was over 100 µM in each case.
In the case of `CN(C)CCn1nc(N)c2nc3cc(C(F)(F)F)ccc3nc21`, the TGI in the test on EKVX NSCLC, in the test with HCC-2998 colon, in the test with MCF7 breast, in the test with MDA-MB-231 breast, in the test on NCI/ADR-RES ovarian and in the test on OVCAR-5 ovarian was over 100 µM in each case. Also, the TGI with RPMI-8226 leukemia, in the test on SK-MEL-5 melanoma and in the test on UACC-62 melanoma was over 100 µM in each case.
As for `C=CCN1CCC2(CC1)NC(=O)c1ccccc1O2`, the TGI in the test on EKVX NSCLC, in the test with HCC-2998 colon, with MCF7 breast, with MDA-MB-231 breast, in the test with NCI/ADR-RES ovarian and in the test with OVCAR-5 ovarian was over 100 µM throughout. The TGI with RPMI-8226 leukemia, in the test with SK-MEL-5 melanoma and with UACC-62 melanoma was over 100 µM throughout.
Consider `C=CC(Br)(CBr)CCC(Br)C(C)C` (stereo not drawn), for which the TGI in the test on EKVX NSCLC was found to be 32.3 µM; in the test with MCF7 breast, 3.75 µM; in the test on MDA-MB-231 breast, 10.3 µM; in the test on NCI/ADR-RES ovarian, 33.8 µM; in the test with OVCAR-5 ovarian, 29.6 µM; with RPMI-8226 leukemia, 4 µM. Besides, the figures for the TGI with SK-MEL-5 melanoma and in the test on UACC-62 melanoma were 17.7 µM and 12.5 µM, respectively.
Take `CCN(CC)CCC(=O)c1ccc(Oc2ccc(F)cc2)cc1`: the TGI with EKVX NSCLC was 39.4 µM; with HCC-2998 colon it was 37.1 µM; in the test with MCF7 breast, 38.7 µM; with MDA-MB-231 breast, 31.2 µM; with NCI/ADR-RES ovarian, 83.4 µM; in the test with OVCAR-5 ovarian, 35 µM. Also, the TGI was found to be 56.4 µM in the test with RPMI-8226 leukemia and 31.9 µM with UACC-62 melanoma.
Regarding `CC1CC[C@@]2(OC1)OC1C[C@H]3[C@@H]4CCC5CC(O)CC[C@]5(C)[C@H]4C/C(=N\N(C)C)[C@]3(C)C1[C@@H]2C` (stereo partly drawn), the TGI in the test with HCC-2998 colon is 45.6 µM; with MCF7 breast, over 100 µM; with MDA-MB-231 breast, 50.2 µM; with NCI/ADR-RES ovarian it was 41.4 µM; in the test with OVCAR-5 ovarian, 62.2 µM; in the test with RPMI-8226 leukemia, over 100 µM. Moreover, the TGI in the test with SK-MEL-5 melanoma is 53.3 µM; with UACC-62 melanoma, over 100 µM.
Consider `N=C(c1cccs1)C1(N2CCCCC2)CCCCC1`, for which the TGI with EKVX NSCLC came to 41.3 µM; in the test on HCC-2998 colon it was 27.1 µM; in the test on MCF7 breast, 30.5 µM; in the test on MDA-MB-231 breast, 31 µM; with NCI/ADR-RES ovarian it was 44.7 µM; in the test with OVCAR-5 ovarian it was 34.6 µM. The TGI was 33.8 µM with RPMI-8226 leukemia and 31 µM in the test with UACC-62 melanoma.
In the case of `COc1ccc(N2C(=O)C3CC4=CC(=O)C[C@H]4[C@H]32)cc1` (stereo partly drawn), the TGI with HCC-2998 colon, with MCF7 breast, in the test on MDA-MB-231 breast, in the test on NCI/ADR-RES ovarian, with OVCAR-5 ovarian and in the test on RPMI-8226 leukemia was over 100 µM each time. Moreover, in the test with UACC-62 melanoma, the TGI is over 100 µM.
On to `COCCNC1CCC2(SCCS2)c2[nH]c3ccccc3c21` (stereo not drawn), for which the TGI in the test on EKVX NSCLC is over 100 µM; in the test with HCC-2998 colon it was over 100 µM; in the test on MCF7 breast it was 39.3 µM; in the test with MDA-MB-231 breast, 54.1 µM; in the test on NCI/ADR-RES ovarian, over 100 µM; in the test with OVCAR-5 ovarian it was over 100 µM. Further, the concentration for total growth inhibition (TGI) came out at 41.4 µM in the test on RPMI-8226 leukemia and 57.4 µM in the test with SK-MEL-5 melanoma.
On to `O=P1(c2ccccc2)C2=CCC=CC2C(c2ccccc2)N1Cc1ccccc1` (stereo not drawn), for which the TGI in the test on EKVX NSCLC was 28.7 µM; in the test with MCF7 breast, 25.6 µM; in the test with MDA-MB-231 breast it was 33.6 µM; with NCI/ADR-RES ovarian it was 32.2 µM; in the test with OVCAR-5 ovarian it was over 100 µM; with RPMI-8226 leukemia it was 30.5 µM. Moreover, the results for the TGI in the test with SK-MEL-5 melanoma and in the test on UACC-62 melanoma were 29.8 µM and 21.7 µM, respectively.
As for `CC1=CC(=O)/C(=C/n2c(=S)[nH]c3ccccc32)C(=O)O1`, the TGI in the test with EKVX NSCLC, with HCC-2998 colon, in the test with MCF7 breast, in the test on MDA-MB-231 breast, with NCI/ADR-RES ovarian and in the test with OVCAR-5 ovarian was over 100 µM each time. Also, the concentration for total growth inhibition (TGI) in the test with RPMI-8226 leukemia and in the test on UACC-62 melanoma was over 100 µM throughout.
Consider `CC(C)c1cccc(C(C)C)c1OS(=O)(=O)NC(=O)OC(C(F)(F)F)C(F)(F)F`, for which the TGI in the test with EKVX NSCLC, with HCC-2998 colon, with MCF7 breast, with MDA-MB-231 breast, in the test with NCI/ADR-RES ovarian and in the test on OVCAR-5 ovarian was over 100 µM in each case. Also, the TGI in the test with RPMI-8226 leukemia is 44.8 µM; in the test with SK-MEL-5 melanoma it was over 100 µM.
